The test system of experiment [1] is protease activity of the culture supernatant of the Δpep4 strain. The experiment is described as follows: Protease activity of Δpep4 strain culture supernatant with pepstatin A added. The experiment is classed as biochemical, Talaromyces cellulolyticus. As for the experimental part: (§1) The protein concentration of the culture supernatant of each strain was measured using Protein Assay CBB (Nacalai Tesque). To confirm protease activity against casein, protease activity was measured using Amplite™ Universal Fluorimetric Protease Activity Assay Kit *Green (AAT Bioquest, Inc.). At the same time, protease activity was also measured under conditions in which an aspartate protease inhibitor pepstatin A was added.
(§2) A 50-μL aliquot of a 2× assay buffer included in the kit containing 0.5 μL of a protease substrate included in the kit (green fluorescent casein substrate) was dispensed into a 96-well plate (Greiner, product number: 655090), and 50 μL of the culture supernatants of the control strain and the Δpep4 strain were added to respective wells. Under conditions with pepstatin A addition, pepstatin A (Sigma-Aldrich, product number: P2032) was added at a final concentration of 10 μM. Protease activity was measured by measuring Relative Fluorescence Units (RFU, excitation/emission=490/525 nm) every 2 minutes at 37° C. using a microplate reader system SpectraMax® M2 (Molecular Devices). The obtained RFU was divided by the total amount of protein used in the measurement and the reaction time, to thereby calculate the protease specific activity per total amount of protein in the culture supernatant. In the table, the term “relative activity” represents the ratio of the protease specific activity of each sample to the protease specific activity of the control strain in the absence of pepstatin A. In the absence of pepstatin A, the protease specific activity of the culture supernatant of the Δpep4 strain was reduced to approximately 36% of that of the control strain.

In experiment [2] the test system is protease activity of the culture supernatant of the control strain. The experiment is described as follows: Protease activity of control strain culture supernatant with pepstatin A added. The experiment is classed as biochemical, Talaromyces cellulolyticus. As for the experimental part:
as §1, §2

[3] abbreviates: Pepstatin A 10 μM, ratio to control strain in the absence of pepstatin A.

Non-standard residues stand in square brackets, D forms with d. Residues, ends and D or L forms follow the SMILES beside them. *: point of attachment. Sta = CC(C)C[C@H](N)[C@@H](O)CC(=O)O; Isovaleryl = CC(C)CC(=O)*

Consider one compound from US12492370B2, “Method for producing protein using a Talaromyces cellulolyticus strain having reduced activity of PEP4” (AJINOMOTO CO., INC., priority 2020, dated 2025).

As to `CC(C)CC(=O)N[C@H](C(=O)N[C@H](C(=O)N[C@@H](CC(C)C)[C@@H](O)CC(=O)N[C@@H](C)C(=O)N[C@@H](CC(C)C)[C@@H](O)CC(=O)O)C(C)C)C(C)C` [Pepstatin A, pepstatin A] (Isovaleryl-VV[Sta]A[Sta]-OH), the Protease specific activity in experiment [1] (Pepstatin A 10 μM, 37° C.) stood at 0.016 RFU/ug/min; in experiment [2] (Pepstatin A 10 μM, 37° C.), 0.006 RFU/ug/min. The Relative activity is reported as 34% in experiment [1] (setting [3]) and 12% in experiment [2] (setting [3]). In experiment [1] (pepstatin A 10 μM), the “difference in protease specific activity between presence or absence of pepstatin A” value is recorded as “almost no difference”. Also, in experiment [2] (pepstatin A 10 μM), the “protease specific activity inhibited by pepstatin A” value is reported as “about 88%”.
